Reference: patent US7563787B2, “Substituted pyrazole compounds” (Miikana Therapeutics, Inc., priority 2005, dated 2009)

Columns and labels:
Aurora B kinase = target: T1, Aurora B kinase (Homo sapiens, UniProt Q96GD4); assay: Aurora B (Aurora 1) Inhibition Assay; type: biochemical; settings: 100 μM compound; ATP 50 μM; 16 h
T1 construct: purchased BPS Biosciences, San Diego, Calif
Protocol: Assays for Aurora B kinase inhibition were carried out similarly to those for Aurora A kinase (see above) with the following modifications. Aurora B kinase (BPS Biosciences, San Diego, Calif.) was used as the enzyme, at a concentration was 2.5 μg/mL. The ATP concentration was 50 μM, and the kinase reaction was allowed to proceed for 16 h. Sodium orthovanadate (20 μM) was added to the buffer to inhibit contaminating phosphatases.

HCT-116 cell growth = assay: Whole Cell Cytotoxicity Assay: Sulforhodamine B; type: cell-based, Human; settings: Homo sapiens, HCT-116; 100 μM compound; 96 hours; SRB staining
ABL1 E255K = target: T2, ABL1 E255K (Homo sapiens, UniProt P00519, E255K); assay: Kinase Selectivity Assay; type: biochemical; settings: read-out: Percent Inhibition at 1 μM
T2 construct: purchased Invitrogen, Carlsbad, Calif
Protocol: (§1) Compounds were assayed for inhibitory activity against a panel of different kinase enzymes at a concentration of 1 μM. Where appropriate, full-length enzymes or catalytically active fragments, with N-terminal or C-terminal His- or GST-tags, were used (Invitrogen, Carlsbad, Calif.). Test compounds were initially diluted to 100× test concentration in 100% DMSO. This 100× concentration was then diluted to a 4× working concentration in Kinase Buffer (50 mM HEPES pH 7.5, 0.01% Brij-35, 10 mM MgCl2, 1 mM EGTA) and 2.5 μL was then added to a low volume NBS, 384-well plate (Corning, Corning, N.Y.). Five μL of a 2× peptide/kinase mixture (Invitrogen, Carlsbad, Calif.), as appropriate (listed in Table 3), was then added and the reaction was then initiated by addition of 2.5 μL of a 4× working concentration of ATP in Kinase Buffer.

ABL2 (Arg) = target: T3, ABL2 (Arg) (Homo sapiens, UniProt P42684); assay: Kinase Selectivity Assay; type: biochemical; settings: read-out: Percent Inhibition at 1 μM; note: ATP at apparent Km or 100 µM
T3 construct: purchased Invitrogen, Carlsbad, Calif
Protocol: as §1

BMX = target: T4, BMX (Homo sapiens, UniProt P51813); assay: Kinase Selectivity Assay; type: biochemical; settings: read-out: Percent Inhibition at 1 μM; note: ATP at apparent Km or 100 µM
T4 construct: purchased Invitrogen, Carlsbad, Calif
T4 sequence (P51813 whole entry): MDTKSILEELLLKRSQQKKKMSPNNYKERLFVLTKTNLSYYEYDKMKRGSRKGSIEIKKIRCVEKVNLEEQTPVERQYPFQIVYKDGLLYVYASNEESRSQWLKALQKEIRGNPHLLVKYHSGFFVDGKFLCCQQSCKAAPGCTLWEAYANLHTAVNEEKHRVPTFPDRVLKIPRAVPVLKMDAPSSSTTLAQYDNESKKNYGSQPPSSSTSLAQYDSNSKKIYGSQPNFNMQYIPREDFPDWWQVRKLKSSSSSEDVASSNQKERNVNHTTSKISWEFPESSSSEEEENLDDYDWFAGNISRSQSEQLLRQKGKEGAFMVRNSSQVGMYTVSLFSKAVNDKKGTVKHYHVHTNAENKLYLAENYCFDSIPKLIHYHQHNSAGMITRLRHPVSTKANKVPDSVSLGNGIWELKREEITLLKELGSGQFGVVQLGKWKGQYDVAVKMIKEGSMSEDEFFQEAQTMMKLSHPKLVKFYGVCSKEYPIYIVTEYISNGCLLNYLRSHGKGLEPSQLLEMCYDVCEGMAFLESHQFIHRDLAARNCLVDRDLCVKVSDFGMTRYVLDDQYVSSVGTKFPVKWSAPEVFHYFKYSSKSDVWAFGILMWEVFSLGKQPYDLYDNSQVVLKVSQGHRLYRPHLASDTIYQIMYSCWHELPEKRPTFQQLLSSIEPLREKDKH
Protocol: as §1

DAPK3 (ZIPK) = target: T5, DAPK3 (ZIPK) (Homo sapiens, UniProt O43293); assay: Kinase Selectivity Assay; type: biochemical; settings: read-out: Percent Inhibition at 1 μM; note: ATP at apparent Km or 100 µM
T5 construct: purchased Invitrogen, Carlsbad, Calif
T5 sequence (O43293 whole entry): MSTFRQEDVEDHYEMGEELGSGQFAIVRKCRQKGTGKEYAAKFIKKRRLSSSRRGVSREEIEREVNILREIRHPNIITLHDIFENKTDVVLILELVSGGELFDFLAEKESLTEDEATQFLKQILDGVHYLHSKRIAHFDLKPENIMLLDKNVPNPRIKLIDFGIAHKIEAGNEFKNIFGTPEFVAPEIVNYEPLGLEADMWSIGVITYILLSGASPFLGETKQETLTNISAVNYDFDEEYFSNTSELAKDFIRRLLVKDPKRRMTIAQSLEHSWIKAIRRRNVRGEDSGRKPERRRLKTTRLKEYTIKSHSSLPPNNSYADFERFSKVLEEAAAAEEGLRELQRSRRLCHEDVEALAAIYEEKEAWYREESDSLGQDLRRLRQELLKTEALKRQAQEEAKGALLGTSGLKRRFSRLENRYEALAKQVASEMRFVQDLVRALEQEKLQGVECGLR
Protocol: as §1

FLT3 = target: T6, FLT3 (Homo sapiens, UniProt P36888); assay: Kinase Selectivity Assay; type: biochemical; settings: read-out: Percent Inhibition at 1 μM; note: ATP at apparent Km or 100 µM
T6 construct: full-length enzymes or catalytically active fragments; purchased Invitrogen
T6 sequence (P36888 27-993): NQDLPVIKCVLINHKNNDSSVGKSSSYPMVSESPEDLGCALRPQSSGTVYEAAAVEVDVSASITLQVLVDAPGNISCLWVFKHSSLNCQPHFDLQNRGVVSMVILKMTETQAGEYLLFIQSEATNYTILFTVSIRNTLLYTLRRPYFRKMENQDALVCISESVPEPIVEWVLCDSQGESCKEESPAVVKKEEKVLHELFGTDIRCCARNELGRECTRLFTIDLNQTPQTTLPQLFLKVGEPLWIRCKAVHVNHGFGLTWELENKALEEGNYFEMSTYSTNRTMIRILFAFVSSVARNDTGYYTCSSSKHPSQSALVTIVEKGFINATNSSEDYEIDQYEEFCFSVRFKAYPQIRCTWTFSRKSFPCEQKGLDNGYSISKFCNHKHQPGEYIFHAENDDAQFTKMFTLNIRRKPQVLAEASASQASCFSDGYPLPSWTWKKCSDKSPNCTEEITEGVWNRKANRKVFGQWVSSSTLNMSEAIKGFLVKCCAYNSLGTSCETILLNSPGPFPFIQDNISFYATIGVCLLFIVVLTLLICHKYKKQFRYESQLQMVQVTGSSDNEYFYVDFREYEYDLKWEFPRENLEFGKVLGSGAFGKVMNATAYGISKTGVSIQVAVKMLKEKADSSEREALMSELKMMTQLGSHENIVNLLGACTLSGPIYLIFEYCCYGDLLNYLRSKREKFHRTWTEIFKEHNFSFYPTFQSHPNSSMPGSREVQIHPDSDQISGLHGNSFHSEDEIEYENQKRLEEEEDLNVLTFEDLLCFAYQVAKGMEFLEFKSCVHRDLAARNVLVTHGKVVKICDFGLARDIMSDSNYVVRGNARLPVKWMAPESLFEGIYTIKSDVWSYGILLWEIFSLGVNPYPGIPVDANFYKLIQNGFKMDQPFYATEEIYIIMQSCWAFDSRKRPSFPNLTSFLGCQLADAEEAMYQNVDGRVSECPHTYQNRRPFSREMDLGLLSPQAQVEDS
Protocol: as §1

FLT4 (VEGFR3) = target: T7, FLT4 (VEGFR3) (Homo sapiens, UniProt P35916); assay: Kinase Selectivity Assay; type: biochemical; settings: read-out: Percent Inhibition at 1 μM; note: ATP at apparent Km or 100 µM
T7 construct: full-length enzymes or catalytically active fragments; purchased Invitrogen
Protocol: as §1

FYN = target: T8, FYN (Homo sapiens, UniProt P06241); assay: Kinase Selectivity Assay; type: biochemical; settings: read-out: Percent Inhibition at 1 μM; note: ATP at apparent Km or 100 µM
T8 construct: full-length enzymes or catalytically active fragments; purchased Invitrogen
T8 sequence (P06241 whole entry, the tested form may be a part): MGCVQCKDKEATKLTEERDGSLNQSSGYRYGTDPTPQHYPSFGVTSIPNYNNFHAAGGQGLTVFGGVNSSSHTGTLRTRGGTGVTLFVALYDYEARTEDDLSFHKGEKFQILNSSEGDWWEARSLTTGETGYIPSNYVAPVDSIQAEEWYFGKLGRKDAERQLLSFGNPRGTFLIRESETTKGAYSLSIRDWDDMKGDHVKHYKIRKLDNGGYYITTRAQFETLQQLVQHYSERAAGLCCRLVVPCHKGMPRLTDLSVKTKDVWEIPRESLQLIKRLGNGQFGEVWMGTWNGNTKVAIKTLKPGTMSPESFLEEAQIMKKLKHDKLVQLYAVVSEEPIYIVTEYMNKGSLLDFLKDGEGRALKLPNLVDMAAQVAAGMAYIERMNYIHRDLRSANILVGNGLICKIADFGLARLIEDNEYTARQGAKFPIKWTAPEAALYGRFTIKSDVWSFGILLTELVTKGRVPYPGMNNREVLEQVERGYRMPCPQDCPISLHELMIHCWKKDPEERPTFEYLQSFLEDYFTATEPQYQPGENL
Protocol: as §1

GSK3B (GSK3 beta) = target: T9, GSK3B (GSK3 beta) (Homo sapiens, UniProt P49841); assay: Kinase Selectivity Assay; type: biochemical; settings: read-out: Percent Inhibition at 1 μM; note: ATP at apparent Km or 100 µM
T9 construct: full-length enzymes or catalytically active fragments; purchased Invitrogen
T9 sequence (P49841 whole entry, the tested form may be a part): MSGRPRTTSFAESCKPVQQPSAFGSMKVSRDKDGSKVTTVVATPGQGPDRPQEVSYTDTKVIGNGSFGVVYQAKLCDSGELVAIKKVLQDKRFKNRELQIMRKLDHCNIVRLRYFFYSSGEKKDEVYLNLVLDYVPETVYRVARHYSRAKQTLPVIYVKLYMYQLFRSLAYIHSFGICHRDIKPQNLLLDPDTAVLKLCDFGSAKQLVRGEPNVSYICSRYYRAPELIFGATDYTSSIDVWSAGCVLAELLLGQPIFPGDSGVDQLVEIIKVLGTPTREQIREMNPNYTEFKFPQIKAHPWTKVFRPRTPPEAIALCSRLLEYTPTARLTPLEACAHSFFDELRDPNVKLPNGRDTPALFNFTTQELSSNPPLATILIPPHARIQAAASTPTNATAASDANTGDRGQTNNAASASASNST
Protocol: as §1

JAK2 = target: T10, JAK2 (Homo sapiens, UniProt O60674); assay: Kinase Selectivity Assay; type: biochemical; settings: read-out: Percent Inhibition at 1 μM; note: ATP at apparent Km or 100 µM
T10 construct: full-length enzymes or catalytically active fragments; purchased Invitrogen
T10 sequence (O60674 whole entry, the tested form may be a part): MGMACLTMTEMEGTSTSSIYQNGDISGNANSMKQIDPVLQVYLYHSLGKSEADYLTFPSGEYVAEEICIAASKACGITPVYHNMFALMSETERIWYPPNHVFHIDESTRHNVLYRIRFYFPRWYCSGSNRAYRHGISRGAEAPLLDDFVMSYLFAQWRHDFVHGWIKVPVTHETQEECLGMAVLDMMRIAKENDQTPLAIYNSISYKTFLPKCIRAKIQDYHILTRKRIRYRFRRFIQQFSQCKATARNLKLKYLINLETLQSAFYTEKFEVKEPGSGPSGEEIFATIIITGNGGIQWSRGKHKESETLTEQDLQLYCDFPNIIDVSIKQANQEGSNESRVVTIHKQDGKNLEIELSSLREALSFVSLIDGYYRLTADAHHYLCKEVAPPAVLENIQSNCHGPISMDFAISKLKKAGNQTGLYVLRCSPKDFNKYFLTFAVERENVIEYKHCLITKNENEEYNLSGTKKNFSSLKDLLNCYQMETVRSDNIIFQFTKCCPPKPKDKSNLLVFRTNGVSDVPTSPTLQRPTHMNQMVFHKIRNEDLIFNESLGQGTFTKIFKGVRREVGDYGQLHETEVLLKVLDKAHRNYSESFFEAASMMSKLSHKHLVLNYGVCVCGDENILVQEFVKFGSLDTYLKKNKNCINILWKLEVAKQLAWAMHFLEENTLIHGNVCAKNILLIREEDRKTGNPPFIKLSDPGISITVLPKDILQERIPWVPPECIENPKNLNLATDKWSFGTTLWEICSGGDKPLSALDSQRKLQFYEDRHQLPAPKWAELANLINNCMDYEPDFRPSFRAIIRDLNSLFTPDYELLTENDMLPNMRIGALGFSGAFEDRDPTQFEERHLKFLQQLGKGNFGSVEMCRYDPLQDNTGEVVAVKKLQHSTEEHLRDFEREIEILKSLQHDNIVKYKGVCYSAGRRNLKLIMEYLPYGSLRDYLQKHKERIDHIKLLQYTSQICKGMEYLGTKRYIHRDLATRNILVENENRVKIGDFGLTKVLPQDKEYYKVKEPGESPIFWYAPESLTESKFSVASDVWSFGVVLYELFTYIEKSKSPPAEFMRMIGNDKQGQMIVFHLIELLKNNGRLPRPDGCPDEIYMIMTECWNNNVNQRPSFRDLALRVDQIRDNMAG
Protocol: as §1

MAP2K1 (MEK1) = target: T11, MAP2K1 (MEK1) (Homo sapiens, UniProt Q02750); assay: Kinase Selectivity Assay; type: biochemical; settings: read-out: Percent Inhibition at 1 μM; note: ATP at apparent Km or 100 µM
T11 construct: full-length enzymes or catalytically active fragments; purchased Invitrogen
Protocol: as §1

PDGFRA (PDGFR alpha) = target: T12, PDGFRA (PDGFR alpha) (Homo sapiens, UniProt P16234); assay: Kinase Selectivity Assay; type: biochemical; settings: read-out: Percent Inhibition at 1 μM; note: ATP at apparent Km or 100 µM
T12 construct: full-length enzymes or catalytically active fragments; purchased Invitrogen
Protocol: as §1

RET = target: T13, RET (Homo sapiens, UniProt P07949); assay: Kinase Selectivity Assay; type: biochemical; settings: read-out: Percent Inhibition at 1 μM; note: ATP at apparent Km or 100 µM
T13 construct: full-length enzymes or catalytically active fragments; purchased Invitrogen
Protocol: as §1

SYK = target: T14, SYK (Homo sapiens, UniProt P43405); assay: Kinase Selectivity Assay; type: biochemical; settings: read-out: Percent Inhibition at 1 μM
T14 construct: purchased Invitrogen, Carlsbad, Calif
Protocol: as §1

SRC [1] = target: T15, SRC (Homo sapiens, UniProt P12931); assay: Kinase Selectivity Assay; type: biochemical; set-up: full-length enzymes or catalytically active fragments; purchased Invitrogen; settings: read-out: Percent Inhibition at 1 μM
T15 sequence (P12931 whole entry, the tested form may be a part): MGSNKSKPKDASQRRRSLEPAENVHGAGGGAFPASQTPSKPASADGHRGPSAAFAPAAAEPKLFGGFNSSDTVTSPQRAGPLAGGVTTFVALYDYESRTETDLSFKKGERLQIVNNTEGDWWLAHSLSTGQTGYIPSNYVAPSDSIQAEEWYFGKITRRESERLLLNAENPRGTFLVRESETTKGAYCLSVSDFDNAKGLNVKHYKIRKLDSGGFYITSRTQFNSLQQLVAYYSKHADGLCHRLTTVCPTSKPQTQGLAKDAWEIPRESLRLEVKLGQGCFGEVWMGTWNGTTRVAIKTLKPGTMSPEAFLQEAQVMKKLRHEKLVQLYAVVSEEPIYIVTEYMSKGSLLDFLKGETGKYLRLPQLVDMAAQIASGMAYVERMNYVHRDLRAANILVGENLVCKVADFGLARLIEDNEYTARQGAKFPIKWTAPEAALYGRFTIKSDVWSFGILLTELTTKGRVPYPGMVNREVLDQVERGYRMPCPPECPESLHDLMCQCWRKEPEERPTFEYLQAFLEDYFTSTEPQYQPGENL
Protocol: as §1

SRC [2] = target: T15, SRC; assay: Src Kinase Inhibition Assay; type: biochemical; set-up: His (N); purchased Upstate USA Inc, Charlottesville, Va; settings: read-out: inhibition of Src at a concentration of 1 μM; 1 μM compound; 33P-ATP filter assay
Protocol: Compounds were assayed for Src kinase inhibitory activity using N-terminal His-tagged human Src (Upstate USA Inc, 706 Forest Street, Charlottesville, Va.).

Row | inhibition at 1 µM (ABL1 E255K) | inhibition at 1 µM (SYK) | Compound | inhibition at 100 µM (Aurora B kinase) | inhibition at 100 µM (HCT-116 cell growth) | inhibition at 1 µM (ABL2 (Arg)) | inhibition at 1 µM (BMX) | inhibition at 1 µM (DAPK3 (ZIPK)) | inhibition at 1 µM (FLT3) | inhibition at 1 µM (FLT4 (VEGFR3)) | inhibition at 1 µM (FYN) | inhibition at 1 µM (GSK3B (GSK3 beta)) | inhibition at 1 µM (JAK2) | inhibition at 1 µM (MAP2K1 (MEK1)) | inhibition at 1 µM (PDGFRA (PDGFR alpha)) | inhibition at 1 µM (RET) | inhibition at 1 µM (SRC [1]) | inhibition at 1 µM (SRC [2])
1 | 53% | 88% | Cc1cc(Nc2nc(/C=C/c3ccccc3)nc(N3CCN(C)CC3)c2N)[nH]n1 [Example 10, 6-(4-methylpiperazin-1-yl)-N-(3-methyl-1H-pyrazol-5-yl)-2-[(E)-2-phenylvinyl]pyrimidin-4,5-diamine] | 97% | 99% | 32% | 19% | 93% | 93% | 87% | 50% | 26% | 61% | 23% | 58% | 95% | 85% | 
2 |  |  | Cc1cc(Nc2cc(N3CCN(C)CC3)nc(/C=C/c3ccccc3)n2)n[nH]1 [Example 31, 6-(4-methylpiperazin-1-yl)-N-(3-methyl-1H-pyrazol-5-yl)-2-[(E)-2-phenylvinyl]pyrimidin-4-amine] | 100% | 99% | 74% | 61% | 68% | 98% | 97% | 89% | 28% | 91% | 3% | 83% | 98% | 96% | ~95%
